Patent US4087561A, “Control of nitrosamine formation in nitride cured meat with 1,2,3,4-tetrahydro-quinoline compounds” (Canada Packers Limited, priority 1975, dated 1978)

Legend:
[1] = Volatile nitrosamine content of cook-out fat from fried nitrite-cured bacon slices streaked with test compound in soya oil; settings: for nitrosamine content of cook-out fat from the test sample: 100 ppm on bacon slices, control sample 15 ppb; for nitrosamine content of the fried meat: inferred from cook-out fat content
Procedure: A portion of the foregoing product was dissolved in winterized soya oil to provide a 4.5% concentration and the resulting solution was streaked on bacon slices, which had undergone a conventional nitrite cure and plant processing, in quantities providing levels of 1,2,3,4-tetrahydro-2,2,4-trimethyl-6-ethoxyquinoline of from 5 ppm to 100 ppm in the meat. Control slices of bacon were streaked with the oil alone. The bacon slices were fried under standardized conditions and the cook-out fat was analyzed for volatile nitrosamine content.
Since the analytical means available are not accurate below about 3 ppb (parts per billion), it will be seen that at levels of about 20 parts per million and greater of the test compound in the meat the amount of nitrosamines in the cook-out fat was reduced below the accurately determinable level.
A portion of the 1,2,3,4-tetrahydro-2,4-diethyl-2-methyl-6-methoxyquinolineprepared as above was dissolved in winterized soya oil (4.5% concentration) and the resulting solution was streaked on nitrite cured, plant processed bacon slices at a level of 100 ppm in the meat. Control slices of bacon received oil alone. The bacon slices were fried and the cook-out fat was analyzed for volatile nitrosamine content as in Example 1.

[2] = Stability of the compound; assay type: physicochemical
[3] = cited from earlier work
[4] = Control of nitrosamine formation in nitrite cured meat (general statements)
[5] = Volatile nitrosamines in cook-out fat of fried bacon cured with pumping pickle containing test compound; settings: 150 mg = 50 ppm, in Tween 60, control sample 21 ppb
Description: This example is representative of the use of compounds of the general formula given above in a pumping pickle.
A single pork belly (13.2 lb) was cut along the short dimension into two equal portions. Production pickle (300g), of a composition which has been generally described above, was pumped into one portion to be used as control. The other half was pumped with the same production pickle (300g) to which 1,2,3,4-tetrahydro-2,2,4-trimethyl-6-ethoxyquinoline, prepared as described in Example 1, (150 mg .ident. 50 ppm) in Tween 60 (500 mg) had been dispersed. Both portions were subsequently smoked, chilled, sliced, and packaged normally. The samples were then analyzed for nitrite content. The amount of nitrite found just before frying was 75 ppm in the control sample and 73 ppm in the test sample.
Each sample of the bacon was then fried under standard frying conditions and the cook-out fat analyzed for volatile nitrosamines.

COc1ccc2c(c1)CCCN2 [1,2,3,4-tetrahydro-6-methoxyquinoline]
nitrosamine content of cook-out fat from the test sample [1]: 0.6 ppb

CCOc1ccc2c(c1)C(C)=CC(C)(C)N2 [ethoxyquin, 1,2-dihydro-2,2,4-trimethyl-6-ethoxyquinoline, reference compound]
stability in the presence of air (darkening) ([2]; oily yellow liquid, presence of air): rather quickly turns dark in the presence of air

CCOc1ccc2c(c1)C(CC)CC(C)(CC)N2 (stereo not shown) [1,2,3,4-tetrahydro-2,4-diethyl-2-methyl-6-ethoxyquinoline]
nitrosamine content of cook-out fat from the test sample [1]: zero

CCC1CC(C)(CC)Nc2ccc(OC)cc21 (stereo not shown) [1,2,3,4-tetrahydro-2,4-diethyl-2-methyl-6-methoxyquinoline]
Nitrosamines in cook-out fat, test product ([1]; Table II sample 1, 100 ppm in meat, control product 51 ppb): 2 ppb | Nitrosamines in cook-out fat, test product ([1]; Table II sample 2, 100 ppm in meat, control product 15 ppb): 0 ppb | nitrosamine content of the cook-out fat ([1]; each test sample of Table II, 100 ppm in meat, reduced below the accurately detectable level): < 3 ppb | nitrosamine content of the fried meat [1]: virtually free of such substances

O=NN1CCCC1 [N-nitrosopyrrolidine]
carcinogenicity in tests on experimental animals [3]: carcinogenic

CN(C)N=O [dimethylnitrosamine]
carcinogenicity in tests on experimental animals [3]: carcinogenic

CCOc1ccc2c(c1)C(C)CC(C)(CC(C)C)N2 (stereo not shown) [1,2,3,4-tetrahydro-2,4-dimethyl-2-isobutyl-6-ethoxyquinoline]
nitrosamine content of cook-out fat from the test sample [1]: 0.6 ppb

CCOc1ccc2c(c1)C(C)CC(C)(C)N2 (stereo not shown) [1,2,3,4-tetrahydro-2,2,4-trimethyl-6-ethoxyquinoline]
Nitrosamines in cook-out fat, test product ([1]; Table I sample 1, 100 ppm in meat, control product 29 ppb): 0 ppb | Nitrosamines in cook-out fat, test product ([1]; Table I sample 2, 80 ppm in meat, control product 19 ppb): 2 ppb | Nitrosamines in cook-out fat, test product ([1]; Table I sample 3, 40 ppm in meat, control product 19 ppb): 3 ppb | Nitrosamines in cook-out fat, test product ([1]; Table I sample 4, 20 ppm in meat, control product 19 ppb): 1 ppb | Nitrosamines in cook-out fat, test product ([1]; Table I sample 5, 10 ppm in meat, control product 19 ppb): 0 ppb | Nitrosamines in cook-out fat, test product ([1]; Table I sample 6, 10 ppm in meat, control product 18 ppb): 2 ppb | Nitrosamines in cook-out fat, test product ([1]; Table I sample 7, 5 ppm in meat, control product 19 ppb): 5 ppb | Nitrosamines in cook-out fat, test product ([1]; Table I sample 8, 20 ppm in meat, control product 31 ppb): 0 ppb | Nitrosamines in cook-out fat, test product ([1]; Table I sample 9, 10 ppm in meat, control product 31 ppb): 10 ppb | Nitrosamines in cook-out fat, test product ([1]; Table I sample 10, 5 ppm in meat, control product 31 ppb): 22 ppb | Nitrosamines in cook-out fat, test product ([1]; Table I sample 11, 20 ppm in meat, control product 36 ppb): 5 ppb | Nitrosamines in cook-out fat, test product ([1]; Table I sample 12, 10 ppm in meat, control product 36 ppb): 8 ppb | Nitrosamines in cook-out fat, test product ([1]; Table I sample 13, 5 ppm in meat, control product 36 ppb): 6 ppb | Nitrosamines in cook-out fat, test product ([1]; Table I sample 14, 100 ppm in meat, control product 49 ppb): 1 ppb | Nitrosamines in cook-out fat, test product ([1]; Table I sample 15, 20 ppm in meat, control product 39 ppb): 3 ppb | Nitrosamines in cook-out fat, test product ([1]; Table I sample 16, 10 ppm in meat, control product 39 ppb): 15 ppb | Nitrosamines in cook-out fat, test product ([1]; Table I sample 17, 20 ppm in meat, control product 25 ppb): 2 ppb | Nitrosamines in cook-out fat, test product ([1]; Table I sample 18, 10 ppm in meat, control product 25 ppb): 4 ppb | nitrosamine content of the fried meat [1]: virtually eliminated | reduction in the amount of nitrosamines formed ([1]; lesser amounts (below about 20 ppm in meat)): significant reduction in the amount of nitrosamines formed, in some instances reducing the nitrosamines below the accurately detectable level | amount of nitrosamines in the cook-out fat ([1]; levels of about 20 ppm and greater in meat, reduced below the accurately determinable level (about 3 ppb)): below 3 ppb | stability at room temperature ([2]; crystalline solid, room temperature): quite stable at room temperature | effectiveness in the control of nitrosamines in nitrite cured meats, compared with ethoxyquin [4]: equally effective | volatile nitrosamines in cook-out fat of test sample [5]: did not show any detectable nitrosamine
